Reference: article PMC4320596, “Cytotoxicity effect of degraded and undegraded kappa and iota carrageenan in human intestine and liver cell lines” (BMC Complementary and Alternative Medicine, 2014)
Entries after “also recorded” stand apart in the source; their conditions may differ.

Legend:
Type in all cases: cell-based, human
FHs 74 Int cells = experiment: Morphological observation under an inverted microscope, FHs 74 Int; settings: 72 h; degraded and TAM at 72 h IC50, undegraded at highest concentration
Method: (§1) Approximately 2×10^5 cells were seeded in 2 mL of culture medium in 6-well plates (BD Labware, England) and incubated with 5% CO2 at 37°C for 24 h. The cells were then treated with degraded FGKC, DKC and CGKC at the appropriate concentrations to produce 50% cell viability at 72 hours as pre-determined by the MTT assay. For undegraded carrageenan, the highest concentration with longest treatment period (72 hours) was used to test on the cells. […] The morphology of the treated cells was observed under an inverted microscope at 200× magnification. The observed morphology was compared to the morphology of untreated cells.

HepG2 cells [1] = experiment: Morphological observation under an inverted microscope, HepG2; settings: 72 h; degraded and TAM at 72 h IC50, undegraded at highest concentration
Method: as §1

Fa2N-4 cells = experiment: Morphological observation under an inverted microscope, Fa2N-4; settings: 72 h; degraded and TAM at 72 h IC50, undegraded at highest concentration
Method: as §1

HepG2 cells [2] = experiment: Acridine orange-ethidium bromide (AO/EtBr) staining, HepG2; settings: 72 h; degraded k-carrageenan
Method: After the cells were harvested by trypsinisation, they were washed with PBS. A 25 μL sample of cells was stained with 10 μL of a mixture (1:1) of acridine orange and ethidium bromide solution. The concentration of AO/EtBr are […] in 1× PBS. After staining, the cells were viewed under a fluorescence microscope at 200× magnification (Leica DM 2500).

HepG2 cells [3] = experiment: DNA fragmentation by agarose gel electrophoresis, HepG2; settings: 1% agarose gel
Method: Caco-2 and HepG2 cells treated with degraded FGKC, DKC and CGKC were lysed with lysis buffer (10 mM Tris–HCl, 5 mM EDTA, […], 0.2% SDS) and incubated at 60°C for 5 min. The RNA in each sample was digested with 10 μL of RNase at 37°C for 1 hour, and proteinase K (more than 3 U uL^−1) was added before incubating at 50°C for an additional 1.5 h. NaCl (5 M) was then added, and the samples were incubated on ice for 5 min to precipitate the protein. The cells were centrifuged for 15 min at highest speed at 4°C, after which supernatant was collected, and an equal volume of isopropanol was added to precipitate the DNA. Then, each sample was centrifuged again at 10,000 g for 10 min at 4°C. Supernatants were discarded, and the pellets were washed with 70% cold ethanol. The DNA sample was left to dry at room temperature before adding 1× TE buffer. Electrophoresis was carried out in a 1.0% (w/v) agarose gel for 1.5 h at 70 V. The gel was examined under UV transillumination following ethidium bromide staining to determine the extent of apoptotic DNA fragmentation.

[4] = test system: PCNA, MKI67 and survivin gene expression in HepG2 cells; experiment: RT-PCR gene expression analysis, HepG2; settings: 72 h, degraded and tamoxifen at IC50, undegraded at 2000 μg mL^−1
Method: Reverse transcription polymerase chain reaction (RT-PCR) was used to analyze the presence of transcribed mRNA for cell proliferation gene marker. […] The extracted RNA was dissolved in DEPC-treated water. The RNA concentration and sample purity was determined using spectrophotometer (Bio Photometer plus, Eppendorf). Two steps RT-PCR were conducted where 1 μg of total RNA was used in the first strand cDNA synthesis using RevertAid First Strand cDNA Synthesis Kit (ThermoScientific, USA). Subsequent PCR reaction was done utilizing Mastercyler Gradient (Eppendorf, Germany). The expression of cell proliferation markers, e.g. PCNA, MKI67 and BIRC5 or known as survivin were analyzed with GAPDH gene acting as the endogenous control. […] PCR amplification were under the following conditions: initial denaturation at 95°C for 2 min, denaturation at 95°C for 1 min, primer annealing as stated in Table 1, extension at 72°C for 45 second, and final extension at 72°C for 5 min. […] The separated DNA fragments were visualized by ethidium bromide staining and photographed using the Alpha Imaging System (Alpha Innotech, San Leandro, CA, USA) under UV transillumination.

Compound: CC/C(=C(\c1ccccc1)c1ccc(OCCN(C)C)cc1)c1ccccc1 [TAM, Tamoxifen]
- Cell morphology before staining, FHs 74 Int (FHs 74 Int cells): cell shrinkage
- Cell morphology before staining, HepG2 (HepG2 cells [1]): cell shrinkage
- Cell morphology before staining, Fa2N-4 (Fa2N-4 cells): cell shrinkage
- Mode of cell death by AO/EtBr staining, HepG2 (HepG2 cells [2]): showed apoptosis
- DNA fragmentation (DNA ladder), HepG2 (HepG2 cells [3]): fragmented
- MKI67 gene expression, HepG2 [4]: lower than control; also recorded: undetectably low
- PCNA gene expression, HepG2 [4]: lower than control
- survivin gene expression, HepG2 [4]: lower than control; also recorded: not expressed
